Patent US11286278B2, “DPEP-1 binding agents and methods of use” (Arch Biopartners, Inc., priority 2018, dated 2022)
“Also recorded” adds a separate entry of the source. Ends that are not written are not given here.

Assays:
[1] = molecular target: T1, DPEP1 (Homo sapiens, UniProt P16444); experiment: Biotin transfer, neutravidin precipitation and DPEP1 western blot; format: binding; set-up: expressed in transfected cells; host or cells: Cos-1; conditions: 10 mg/ml biotin transfer peptide, UV activation
T1 sequence (P16444 17-385): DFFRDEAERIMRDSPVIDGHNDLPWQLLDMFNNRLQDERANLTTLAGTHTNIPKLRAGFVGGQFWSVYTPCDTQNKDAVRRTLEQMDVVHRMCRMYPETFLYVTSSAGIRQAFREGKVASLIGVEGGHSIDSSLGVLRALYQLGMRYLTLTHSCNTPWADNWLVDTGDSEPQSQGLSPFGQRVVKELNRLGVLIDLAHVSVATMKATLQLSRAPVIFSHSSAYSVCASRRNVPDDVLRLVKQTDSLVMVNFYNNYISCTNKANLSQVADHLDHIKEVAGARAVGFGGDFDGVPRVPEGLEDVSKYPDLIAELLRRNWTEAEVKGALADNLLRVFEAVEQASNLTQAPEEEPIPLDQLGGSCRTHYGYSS
Protocol: (§1) Cos-1 cells were transiently transfected with either 3 or 5 μg of membrane dipeptidase (DPEP-1) cDNA corresponding to the rat (Shown in FIG. 5A), human (Shown in FIG. 5B), or canine (Shown in FIG. 5E) DPEP-1 gene using Lipofectamine 2000 (Invitrogen) reagent in OptiMEM medium. 24 hours after transfection, DPEP-1 expresisng cells were re-seeded on collagen coated (neutralized) wells in 24 well plates and allowed to grow for 24 hours at 37° C. […] Cells were blocked with FBS/NBSA/Tween in PBS for 30 minutes on ice. Cells were then washed with PBS and incubated with Alexa-488 (green) conjugated LSALT, GFE-1, control peptide or DPEP-1 antibody ( 1/100) (Sigma) on ice for 30 minutes. […] After incubation, cells were washed with PBS and treated with 10 mg/ml biotin transfer peptide (LSALT, GFE-1 or Control Peptide (KGAL)] for 10 minutes. Cells were then washed with PBS and biotin transfer was enabled by UV activation of the aryl azide groups for 15 minutes at 363 nm. Residual fluid was removed and monolayers were lysed either with octyl-glucoside/RIPA or 8M urea. Isolated supernatants were rotated with 50 μl of neutr-avidin agarose beads at 4° C. for 24 hours. Beads were washed with corresponding buffers, boiled in Laemmli buffer and analyzed by western blot using a DPEP-1 specific antibody (Proteintech).

[2] = molecular target: T2, human DPEP3 (Homo sapiens, UniProt Q9H4B8); experiment: Immunofluorescence binding to Cos-1 cells transfected with human DPEP3; conditions: Alexa-488 conjugate
T2 construct: expressed in transfected cells; host or cells: Cos-1
T2 sequence (Q9H4B8 36-463): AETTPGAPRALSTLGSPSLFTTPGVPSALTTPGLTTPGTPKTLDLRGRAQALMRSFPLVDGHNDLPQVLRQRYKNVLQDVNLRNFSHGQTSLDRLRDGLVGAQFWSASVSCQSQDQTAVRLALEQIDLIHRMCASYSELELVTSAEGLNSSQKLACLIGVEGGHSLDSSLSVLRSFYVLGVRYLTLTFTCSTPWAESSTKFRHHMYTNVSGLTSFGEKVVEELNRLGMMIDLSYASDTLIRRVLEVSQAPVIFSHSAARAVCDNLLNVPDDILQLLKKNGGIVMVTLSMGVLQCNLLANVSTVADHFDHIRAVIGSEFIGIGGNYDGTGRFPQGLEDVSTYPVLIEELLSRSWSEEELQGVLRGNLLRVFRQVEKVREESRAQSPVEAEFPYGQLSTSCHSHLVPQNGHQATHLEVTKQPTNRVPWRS
Protocol: Cos-1 cells were transiently transfected with either 3 μg of human DPEP-1, DPEP2, or DPEP3 gene using Lipofectamine 2000 (Invitrogen) reagent in OptiMEM medium. 24 hours after transfection, DPEP-1, DPEP2, or DPEP3 expressing cells were re-seeded on collagen coated (neutralized) wells in 24 well plates and allowed to grow for 24 hours at 37° C. […] Cells were blocked with FBS/NBSA/Tween in PBS for 30 minutes on ice. Cells were then washed with PBS and incubated with LSALT or GFE-1, conjugated with Alexa-488 (green). After incubation, cells were washed with PBS and stained with DAPI for 5 minutes on ice. Cells were then washed with PBS and fixed using 4% paraformaldehyde and immunofluorescence microscopy was performed to assess binding. Representative photomicrographs are shown for each experimental condition (n=3) in FIG. 6A. Proteins from DPEP-1, DPEP2 and DPEP3 transfected cells were isolated after 48 hours using octyl-glucoside/RIPA lysis buffer and western blot analysis was performed to assess DPEP-1, DPEP2 and DPEP3 protein expression using specific antibodies; DPEP-1 antibody (Sigma), DPEP2 (Abcam) and DPEP3 (Santacruz). Blots were stripped and reprobed with an anti-β-actin.

[3] = molecular target: T1, DPEP1; experiment: Immunofluorescence binding of Alexa-488 conjugated peptides to Cos-1 cells transfected with human DPEP-1; set-up: expressed in transfected cells; host or cells: Cos-1; conditions: Alexa-488 conjugate, on ice 30 minutes
Protocol: 24 hours after transfection, DPEP-1 expressing cells weer reseeded on 24 well collagen coated (neutralized) plates and allowed to grow for 24 hours at 37° C. […] Cells were blocked with FBS/NBSA/Tween in PBS for 30 minutes on ice. Cells were then washed with PBS and incubated with Alexa-488 (green) conjugated LSALT, GFE-1, control peptide or DPEP-1 antibody ( 1/100) (Sigma) on ice for 30 minutes. After incubation, cells were washed with PBS and stained with DAPI for 4 minutes on ice. Cells were again washed with PBS, fixed using 4% paraformaldehyde and immunofluoresence microscopy was performed to assess binding. Proteins from human DPEP-1 transfected cells were isolated after 48 hours using octyl-glucoside/RIPA in the absence of protease inhibitors. […] Values shown are the mean ±s.e.m. from six independent experiments; asterisks (***) indicate P<0.001 as compared with DPEP-1 transfected cells (one-way ANOVA with the Neuman-Keuls post-test)[…]. Proteins from transfected cells were isolated after 48 hours using octyl-glucoside/RIPA lysis buffer and western blot analysis was performed to assess DPEP-1 expression using DPEP-1 antibody (Sigma). […]

[4] = molecular target: T3, rat DPEP-1 (Rattus norvegicus, UniProt P31430); experiment: Immunofluorescence binding of Alexa-488 conjugated peptides to Cos-1 cells transfected with rat DPEP-1; conditions: Alexa-488 conjugate, on ice 30 minutes
T3 construct: expressed in transfected cells; host or cells: Cos-1
Protocol: as §1

T3 sequence (P31430 17-384): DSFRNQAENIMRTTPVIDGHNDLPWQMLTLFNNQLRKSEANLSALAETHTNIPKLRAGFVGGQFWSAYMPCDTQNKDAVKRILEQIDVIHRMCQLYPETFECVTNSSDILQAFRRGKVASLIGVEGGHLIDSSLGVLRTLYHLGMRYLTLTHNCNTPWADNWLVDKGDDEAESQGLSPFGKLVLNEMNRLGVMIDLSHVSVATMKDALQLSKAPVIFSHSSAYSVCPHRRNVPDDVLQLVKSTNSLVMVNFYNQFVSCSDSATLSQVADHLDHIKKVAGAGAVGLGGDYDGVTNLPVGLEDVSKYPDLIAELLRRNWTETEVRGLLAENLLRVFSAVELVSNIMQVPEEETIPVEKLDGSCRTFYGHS

H-LSALTPSPSWLKYKAL [LSALT]
interaction with DPEP1 by biotin transfer [1]: able to interact with DPEP1 | binding to human DPEP3 transfected Cos-1 cells [2]: does not Bind | binding of fluorescently labelled peptide to human DPEP-1 transfected Cos-1 cells [3]: Binds; also recorded: Fluorescent peptide binding is only seen with DPEP1 transfection | binding of fluorescently labelled peptide to rat DPEP-1 transfected Cos-1 cells [4]: Binds
